Test results: patent publication US9790252B2, “2-fluorinated riboses and arabinoses and methods of use and synthesis” (CORNELL UNIVERSITY, priority 2009, dated 2017)

Experiments:
Assay type in all cases: biochemical
SirT2 = target: T1, SirT2 (Homo sapiens, UniProt Q8IXJ6); assay: SirT2 activity assay (HPLC of 2′- and 3′-AADPR); details: 800 μM NAD+, 500 μM H3 peptide, pH 7.5, 45 mins at 37° C.
T1 sequence (Q8IXJ6 1-389): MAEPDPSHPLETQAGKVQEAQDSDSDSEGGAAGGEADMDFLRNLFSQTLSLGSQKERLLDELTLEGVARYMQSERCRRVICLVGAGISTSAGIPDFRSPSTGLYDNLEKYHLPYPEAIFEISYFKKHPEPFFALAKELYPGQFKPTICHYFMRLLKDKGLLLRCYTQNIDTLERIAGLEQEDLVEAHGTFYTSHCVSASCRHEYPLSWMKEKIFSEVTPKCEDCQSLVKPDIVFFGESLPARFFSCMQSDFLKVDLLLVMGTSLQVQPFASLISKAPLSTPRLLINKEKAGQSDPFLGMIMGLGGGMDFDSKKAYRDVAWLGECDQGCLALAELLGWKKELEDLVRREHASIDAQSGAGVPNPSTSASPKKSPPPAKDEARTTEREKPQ
Protocol: (§1) Reactions containing 800 μM NAD^+, 500 μM H3 peptide, and 100 mM phosphate buffer at pH 7.5, with varying concentrations of 2′-deoxy-2′-fluoro-nucleosides or nucleotides were initiated by addition of SirT2 enzyme to a concentration of 16.6 μM. Reactions were incubated for 45 mins at 37° C. and quenched by addition of trifluoroacetic acid to pH 2. After centrifugation to remove precipitates, reactions were injected on HPLC for activity analysis. Production of 2′- and 3′-AADPR were analyzed at 260 nm.
as §1, with “SirT2 Activity Assay: Reactions containing” for “Reactions containing”, “concentrations of 2′-deoxy-2′-chloro-nucleosides were initiated” for “concentrations of 2′-deoxy-2′-fluoro-nucleosides or nucleotides were initiated”

SirT1 = target: T2, SirT1 (Homo sapiens, UniProt Q96EB6); assay: SirT1 activity assay (HPLC of 2′- and 3′-AADPR); details: 200 μM NAD+, 100 μM JB12 peptide; for Ki / SirT1 Ki: pH 7.5, 30 mins at 37° C.; for SirT1 inhibition (in words): pH 7.5
T2 sequence (Q96EB6 1-747): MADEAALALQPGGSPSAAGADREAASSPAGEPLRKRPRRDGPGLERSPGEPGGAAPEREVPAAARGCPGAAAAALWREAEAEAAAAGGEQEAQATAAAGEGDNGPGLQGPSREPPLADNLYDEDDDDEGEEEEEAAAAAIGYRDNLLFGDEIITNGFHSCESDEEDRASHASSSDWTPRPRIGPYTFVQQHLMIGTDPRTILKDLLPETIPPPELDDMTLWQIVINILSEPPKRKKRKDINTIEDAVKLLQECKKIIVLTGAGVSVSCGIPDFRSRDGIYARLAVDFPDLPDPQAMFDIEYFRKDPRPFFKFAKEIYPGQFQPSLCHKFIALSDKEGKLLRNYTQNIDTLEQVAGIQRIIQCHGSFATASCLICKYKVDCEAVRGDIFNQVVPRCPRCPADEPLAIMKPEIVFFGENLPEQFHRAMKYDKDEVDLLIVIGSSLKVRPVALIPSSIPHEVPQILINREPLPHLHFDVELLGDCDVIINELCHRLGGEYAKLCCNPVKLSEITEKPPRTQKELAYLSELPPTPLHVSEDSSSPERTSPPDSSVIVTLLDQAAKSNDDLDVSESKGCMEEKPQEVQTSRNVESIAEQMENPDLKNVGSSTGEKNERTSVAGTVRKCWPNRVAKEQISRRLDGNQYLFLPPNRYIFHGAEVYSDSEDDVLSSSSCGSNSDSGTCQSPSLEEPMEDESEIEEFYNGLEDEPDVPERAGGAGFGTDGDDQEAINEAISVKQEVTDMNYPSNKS
Protocol: as §1, with “200” for “800”, “100” for “500”, “JB12” for “H3”, “SirT1” for “SirT2”, “12.9” for “16.6”, “30” for “45”
SirT1 Activity Assay: Reactions containing 200 μM NAD^+, 100 μM JB12 peptide, and 100 mM phosphate buffer at pH 7.5, with varying concentrations of 2′-deoxy-2′-chloro-nucleosides were initiated by addition of SirT1 enzyme to a concentration of 12.9 μM. Reactions were incubated for 30 mins at 37° C. and quenched by addition of trifluoroacetic acid to pH 2. After centrifugation to remove precipitates, reactions were injected on HPLC for activity analysis. Production of 2′- and 3′-AADPR were analyzed at 260 nm.

SirT3 = target: T3, SirT3 (Homo sapiens, UniProt Q9NTG7); assay: SirT3 activity assay (HPLC of 2′- and 3′-AADPR); details: 800 μM NAD+, 500 μM H3 peptide, pH 7.5, 2 hours at 37° C.
T3 sequence (Q9NTG7 1-399): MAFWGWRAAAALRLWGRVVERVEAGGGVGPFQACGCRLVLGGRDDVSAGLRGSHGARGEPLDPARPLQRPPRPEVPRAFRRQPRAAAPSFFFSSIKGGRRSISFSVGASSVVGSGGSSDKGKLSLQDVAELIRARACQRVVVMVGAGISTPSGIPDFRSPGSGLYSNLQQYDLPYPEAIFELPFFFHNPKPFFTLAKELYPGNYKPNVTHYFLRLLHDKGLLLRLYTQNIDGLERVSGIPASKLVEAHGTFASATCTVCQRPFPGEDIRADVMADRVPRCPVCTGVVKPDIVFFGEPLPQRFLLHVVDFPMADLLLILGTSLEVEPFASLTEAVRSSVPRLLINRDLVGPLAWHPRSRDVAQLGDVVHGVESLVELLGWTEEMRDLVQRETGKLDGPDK
Protocol: as §1, with “SirT3” for “SirT2”, “13.9” for “16.6”, “2 hours” for “45 mins”
SirT3 Activity Assay: Reactions containing 800 μM NAD^+, 500 μM H3 peptide, and 100 mM phosphate buffer at pH 7.5, with varying concentrations of 2′-deoxy-2′-chloro-nucleosides were initiated by addition of SirT3 enzyme to a concentration of 13.9 μM. Reactions were incubated for 2 hours at 37° C. and quenched by addition of trifluoroacetic acid to pH 2. After centrifugation to remove precipitates, reactions were injected on HPLC for activity analysis. Production of 2′- and 3′-AADPR were analyzed at 260 nm.

| Ki (SirT2) | Ki (SirT1) | Ki (SirT3) | SirT1 inhibition (in words) (SirT1) | SirT1 Ki (SirT1) | SirT2 Ki (SirT2) | SirT3 Ki (SirT3) | SMILES |
| --- | --- | --- | --- | --- | --- | --- | --- |
| 403 µM | 780 µM | 123 µM | – | – | – | – | NC(=O)c1ccc[n+]([C@@H]2O[C@H](CO)C(O)C2(Cl)Cl)c1 (stereo partly drawn) [β-gem-diCl-NR, 1-(2′-deoxy-2′,2′-dichloro-ribofuranosyl)-nicotinamide] |
| 162 µM | 18 µM | 128 µM | – | – | – | – | NC(=O)c1ccc[n+]([C@@H]2O[C@H](COP(=O)([O-])O)C(O)C2(F)F)c1 (stereo partly drawn) [gem-diF-NMN, 2′-deoxy-2′,2′-difluoro-ribo-nicotinamide mononucleotide] |
| – | – | – | no inhibition | – | Ki = high mM | Ki = high mM | NC(=O)c1ccc[n+]([C@@H]2O[C@H](CO)[C@@H](O)C2(F)F)c1 [gem-diF-NR, 1-(2′-deoxy-2′,2′-difluoro-ribofuranosyl)-nicotinamide] |
| 1730 µM | 200 µM | 250 µM | – | – | – | – | NC(=O)c1ccc[n+]([C@@H]2O[C@H](CO)C(O)[C@@H]2F)c1 (stereo partly drawn) [ribo-F-NR, 1-(2-deoxy-2-fluoro-D-ribofuranosyl)-nicotinamide] |

Continued, compound first:

| SMILES | Ki (SirT2) | Ki (SirT1) | Ki (SirT3) | SirT1 inhibition (in words) (SirT1) | SirT1 Ki (SirT1) | SirT2 Ki (SirT2) | SirT3 Ki (SirT3) |
| --- | --- | --- | --- | --- | --- | --- | --- |
| NC(=O)c1ccc[n+]([C@@H]2O[C@H](COP(=O)([O-])O)C(O)C2F)c1 (stereo partly drawn) [ribo-F-NMN, 2′-deoxy-2′-fluoro-ribo-nicotinamide mononucleotide] | 450 µM | – | 106 µM | no inhibition | – | – | – |
| NC(=O)c1ccc[n+]([C@@H]2O[C@H](CO)C(O)C2Cl)c1 (stereo partly drawn) [β-ara-Cl-NR, 1-(2′-deoxy-2′-chloro-arabinofuranosyl)-nicotinamide] | 3200 µM | – | 546 µM | – | Ki = high mM | – | – |
| NC(=O)c1ccc[n+]([C@@H]2O[C@H](CO)C(O)C2F)c1 (stereo partly drawn) [ara-F-NR, 1-(2′-deoxy-2′-fluoro-arabinofuranosyl)-nicotinamide] | 2300 µM | – | 623 µM | – | Ki = high mM | – | – |
